pEC50, pIC50: −log10 of the molar value.
Tests used:
rat osteocalcin promoter = experiment: OCN (osteocalcin) promoter assay; type: cell-based; conditions: RG-15 (ROS 17/2.8) cells, 48 hr treatment, luciferase
Experimental: 3. The OCN (Osteocalcin) Promoter Assay
The OCN Promoter Assay is an indicator and marker for osteoporosis. Desired assay results are EC50 less than or equal to […]. Preferred assay results are less than […].
(3) Materials and Method for the OCN Promoter Assay:
The activation of osteocalcin by VDR ligands was evaluated in a rat osteoblast-like cell line RG-15 (ROS 17/2.8) stably expressing rat osteocalcin promoter fused with luciferase reporter gene. The stable cell lines were established as reported before (Activation of Osteocalcin Transcription involves interaction of protein kinase A- and Protein kinase C-dependent pathways. Boguslawski, G., Hale, L. V., Yu, X.-P., Miles, R. R., Onyia, J. E., Santerre R. F., Chandrasekhar, S. J. Biol. Chem. 275, 999-1006, 2000). Confluent RG-15 cells maintained in DMEM/F-12 medium (3:1) containing 5% FBS, 300 µg/ml G418 and at 37° C. under 5% CO2/95% air atmosphere were trypsinized (0.25% trypsin) and plated into white opaque 96-well cell culture plates (25000 cells/well). After 24 hr, cells (in DMEM/F-12 medium+2% FBS) were treated with various concentrations of compounds, dissolved in DMSO. The final DMSO concentration remained at 0.01% (v/v). After 48 hr treatment, the medium was removed, cells were lysed with 50 µl of lysis buffer (From Luciferase reporter assay system, Roche Diagnostics, Indianapolis, Ind.) and assayed for luciferase activity using the Luciferase Reporter Gene Assay kit from Boehringer Mannheim as per manufacturer's specifications.

[1] = Mouse hypercalcemia assay; type: in vivo; conditions: female DBF mice, oral gavage for 6 days, serum ionized calcium 6 hours after last dosing
Source text: 4. The Mouse Hypercalcemia Assay
(4) Materials and Method for the Mouse Hypercalcemia Assay: […]

KERtr cells = experiment: Keratinocyte proliferation assay; type: cell-based; conditions: Homo sapiens, 72 hr, BrdU incorporation, read-out: Kera. Prolif. IC50
Experimental: 5. The Keratinocyte Proliferation Assay
This Assay is indicative for the treatment of psoriasis.
(5) The Keratinocyte Proliferation Assay:
KERtr cells (Human skin keratinocyte transformed with a retrovirus vector, obtained from ATCC) were plated in 96-well flat-bottomed plates (3000 cells/well) in 100 µl keratinocyte serum free medium supplemented with bovine pituitary extract in the absence of EGF (Life Technologies, Rockville, Md.) and incubated at 37° C. for two days. The cells were treated with various concentrations of VDR ligands (ten-fold serial dilution from 10,000 nM to 0.1 nM in triplicate), dissolved in 100 µl keratinocyte serum free medium supplemented with bovine pituitary extract in the absence of EGF and incubated at 37° C. for 72 hr. BrdU (5-bromo-2′-deoxyuridine) incorporation was analyzed as a measure of DNA replication (Cell proliferation ELISA kit, Roche Diagnostics, Indianapolis, Ind.) and absorbance was measured at 405 nm. Potency values (IC50) values were determined as the concentration (nM) of compound that elicited a half-maximal response.

[2] = test system: IL-10 production in PBMCs; experiment: Human IL-10 induction assay; type: cell-based; conditions: PBMC; TPA/PHA treated human PBMCs, IL-10 in supernatant by immunoassay
Source text: 6. The IL-10 Induction Assay
This is an in vitro efficacy assay for psoriasis, abscess and adhesion. Psoriasis involves both keratinocytes and immune cells. IL-10 is a unique cytokine because it is anti-inflammatory and immunosuppressive. This assay tells us whether a VDRM is able to function as an agonist in PBMCs (primary blood mononuclear cells) or not. A lower EC50 value is desirable in this assay since a compound with a lower EC50 value will be a better agonist in PBMCs. […] 7. Other Compound Assay Standards An alternative measure of the efficacy of compounds of the invention for treatment of osteoporosis is a numerical ratio calculated as follows: • Dose Threshold needed to induce hypercalcemia • divided by • Dose Threshold needed for bone efficacy An alternative measure of the efficacy of compounds of the invention for treatment of psoriasis is a numerical ratio calculated as follows: • Dose Threshold needed to induce hypercalcemia • divided by • Dose Threshold needed to induce keratinocyte proliferation For the above ratios, Dose Thresholds are determined from dose response curve data. 8. The CaT1 (Calcium Transport Protein 1) Assay The CaT1 Assay is an indicator for the undesirable condition of hypercalcemia. The higher the EC50 values for a compound the less calcemic it will be in vivo. […] Preferred assay results are greater than 1000 nM. Details of the Assay Methods: (1) Materials and Method for RXR-VDR Heterodimerization Assay: Transfection Method:
(6) Materials and Method for Human IL-10 Induction Assay:
Isolation of peripheral blood mononuclear cells (PBMCs): • A. Collect 50 ml of human blood and dilute with media, RPMI-1640. • B. Prepare sterile tubes with ficol. • C. Add diluted blood to tubes. • D. Centrifuge. • E. Discard the top layer and collect the cells from middle layer. • F. Divide all cells into four tubes and add media. • G. Centrifuge. • H. Aspirate off media and resuspend. • I. Collect all cells • J. Centrifuge. at 1200 rpm for 10 minutes. • K. Resuspend in RPMI-1640 with 2% FBS and count cells
Stimulation of PBMC: • L. Prepare TPA in DMSO. • M. Dissolve PHA in water. • N. Plate TPA/PHA treated PBMCs in well plates. • O. Incubate.
Treatment: • P. Prepare all compound dilutions in plain RPMI-1640 media. • Q. Add diluted compound. • R. Incubate.
Sample Collection and Assay: • S. Remove all the cells by centrifugation and assay the supernatant for IL-10 by immunoassay. • 1) T. Perform IL-10 assay using anti-human IL-10 antibody coated beads, as described by the manufacturer (Linco Research Inc., St. Charles, Mo.).

VDR (pGal4-VDR-LBD) = target: T1, VDR (pGal4-VDR-LBD) (Homo sapiens, UniProt P11473); experiment: VDR CTF (Caco-2 cell co-transfection assay); type: cell-based; conditions: Caco-2 cells, Gal4-responsive reporter pFRLuc; surrogate for calcemic activity
T1 construct: the receptor expression vector pGal4-VDR-LBD (10 ng); expressed in transfected cells; host or cells: Caco-2 cells
T1 sequence (P11473 127-423 limits assumed): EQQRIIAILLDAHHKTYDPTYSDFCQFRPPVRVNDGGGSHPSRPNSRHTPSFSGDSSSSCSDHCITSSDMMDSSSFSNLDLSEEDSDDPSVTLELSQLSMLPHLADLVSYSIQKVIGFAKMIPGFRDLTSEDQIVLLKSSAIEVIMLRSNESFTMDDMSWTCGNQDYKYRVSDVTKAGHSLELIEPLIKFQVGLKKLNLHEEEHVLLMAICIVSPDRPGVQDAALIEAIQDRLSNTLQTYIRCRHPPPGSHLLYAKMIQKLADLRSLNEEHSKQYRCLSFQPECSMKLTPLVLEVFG
Experimental: 2. The Caco-2 Cell Co-Transfection Assay:
The Caco-2 cell assay is an indicator for the undesirable condition of hypercalcemia. This co-transfection assay is a surrogate assay for in vivo calcemic activity of VDR ligands. […] Preferred assay results are greater than 1000 nM.
(2) Materials and Method for the Caco-2 Cell Assay:
Caco-2 cells, grown in phenol red free, DMEM (Invitrogen, Carlsbad, Calif.) containing 10% charcoal-stripped FCS (Hyclone, Logan, Utah), were transfected with Fugene 6 reagent (Roche Diagnostics, Indianapolis, Ind.). Cells (5000/well) were plated 18 h before transfection in a 96 well plate. The Cells were transfected with Gal4-responsive reporter pFRLuc (150 ng, Stratagene, La Jolla Calif.) and the receptor expression vector pGal4-VDR-LBD (10 ng), along with Fugene 6 reagent (0.2 μl/well). The DNA-Fugene complex was formed by incubating the mixture for 30 min at room temperature. The cells were transfected in triplicate for 5 h, and treated with various concentrations of VDR ligands (form 0.01 nM to 10,000 nM concentration range) 18 h post-transfection. The luciferase activity was quantified using Steady-Glo reagent kit (Promega, Madison, Wis.) as per manufacturer's specifications.

Row | pEC50 (rat osteocalcin promoter; Rattus norvegicus, 48 h) | Mouse Hypercal [1] | pEC50 (VDR (pGal4-VDR-LBD)) | pEC50 (rat osteocalcin promoter) | SMILES | pIC50 (KERtr cells) | pIC50 [2]
1 | 6.47 | 1000 µg/kg/day | – | – | CCC(CC)(c1ccc(OCC(=O)C(C)(C)C)c(C)c1)c1ccc(OC[C@H](O)C(C)(C)C)c(C)c1 [EE, reference compound] | – | –
2 | 7.51 | 1000 µg/kg/day | – | – | CCC(CC)(c1ccc(OCC(=O)C(C)(C)C)c(C)c1)c1ccc(OCC(=O)C(C)(C)C)c(C)c1 [DD, reference compound] | 5.97 | –

Further lines, the molecule ahead of its results:

Row | SMILES | pEC50 (rat osteocalcin promoter; Rattus norvegicus, 48 h) | Mouse Hypercal [1] | pEC50 (VDR (pGal4-VDR-LBD)) | pEC50 (rat osteocalcin promoter) | pIC50 (KERtr cells) | pIC50 [2]
3 | CCC(CC)(c1ccc(OCC(O)CO)c(C)c1)c1ccc(OCC(O)C(C)(C)C)c(C)c1 (stereo not drawn) [BB, 3-(4-{1-Ethyl-1-[4-(2-hydroxy-3,3-dimethyl-butoxy)-3-methyl-phenyl]-propyl}-2-methyl-phenoxy)-propane-1,2-diol, reference compound] | 8.08 | 20 µg/kg/day | – | – | 8.00 | 7.55
4 | C=C1/C(=C\C=C2/CCC[C@]3(C)[C@@H]([C@H](C)CCCC(C)(C)O)CC[C@@H]23)C[C@@H](O)C[C@@H]1O [AA, 1α,25-dihydroxyvitamin D3, reference compound] | – | 0.06 µg/kg/day | – | – | – | –
5 | CCC(O)(C#Cc1ccc(C(CC)(CC)c2ccc(C(=O)NC(C)(C)C(=O)O)c(C)c2)cc1C)CC [Ex. 2, 2-(4-{1-Ethyl-1-[4-(3-ethyl-3-hydroxy-pent-1-ynyl)-3-methyl-phenyl]-propyl}-2-methyl-benzoylamino)-2-methyl-propionic acid] | 8.92 | 300 µg/kg/day | 6.40 | 8.77 | 7.68 | 7.62
6 | C=C1/C(=C\C=C2/CCC[C@]3(C)[C@@H]([C@H](C)/C=C/[C@@H](O)C4CC4)CC[C@@H]23)C[C@@H](O)C[C@@H]1O [FF, calcipotriol, reference compound] | – | – | – | – | 6.99 | 9.30
